Source: publication PMC10337483 (Biochemistry, 2022)
Entries after “also recorded” stand apart in the source; their conditions may differ.

Key:
[1] = after 0.5 h; cited from earlier work
[2] = system: BV2 microglial cells stimulated with LPS; assay: Nitric oxide level in BV2 microglial cells stimulated with LPS; type: cell-based; details: highest reduction among analogs (Figure S8)
[3] = system: BV2 microglial cells stimulated with LPS; assay: IL-6 level by ELISA in BV2 microglial cells stimulated with LPS; type: cell-based; details: for effect on IL-6 level (pro-inflammatory activity): 0–5 μM, LPS-stimulated BV2, in words; for IL-6 expression (ELISA): 5 μM, LPS-stimulated BV2
[4] = system: BV2 microglial cells stimulated with LPS; assay: IL-10 level by ELISA in BV2 microglial cells stimulated with LPS; type: cell-based; details: for effect on IL-10 levels: 0–5 μM, LPS-stimulated BV2, in words; for levels of IL-10 (ELISA): LPS-stimulated BV2, 5 μM implied; for expression of the anti-inflammatory cytokines: 5 μM, in words
CYP3A4 = CYP3A4 (Homo sapiens, UniProt P08684); assay: Spectral
Chain of CYP3A4 (P08684 whole entry): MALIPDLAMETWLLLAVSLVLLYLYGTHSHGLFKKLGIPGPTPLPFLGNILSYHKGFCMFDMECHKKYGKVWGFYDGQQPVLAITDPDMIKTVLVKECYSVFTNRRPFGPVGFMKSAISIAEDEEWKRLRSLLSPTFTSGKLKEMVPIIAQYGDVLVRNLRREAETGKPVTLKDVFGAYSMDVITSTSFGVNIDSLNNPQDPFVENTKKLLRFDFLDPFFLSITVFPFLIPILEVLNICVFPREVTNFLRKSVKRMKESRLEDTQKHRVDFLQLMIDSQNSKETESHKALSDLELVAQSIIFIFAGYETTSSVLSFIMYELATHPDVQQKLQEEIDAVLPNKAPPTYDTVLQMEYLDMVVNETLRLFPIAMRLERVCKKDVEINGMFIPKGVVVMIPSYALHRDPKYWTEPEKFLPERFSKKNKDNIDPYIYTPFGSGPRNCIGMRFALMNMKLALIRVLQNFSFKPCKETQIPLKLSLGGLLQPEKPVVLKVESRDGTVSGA

[5] = type: in vivo, mouse; details: for concentration of metabolite formed, detected in plasma: mice given CBG 20 mg/kg, after 0.5 h
[6] = system: human liver microsomes (HLM); assay: CBG metabolism by human liver microsomes, targeted mass spectrometry; type: in vitro ADME
CYP2C8 [7] = assay: Spectral; details: presence versus absence of CBG
CYP2C8 [8] = details: human
[9] = system: CYP2J2, 3A4, 2D6, 2C9 and 2C8; type: in vitro ADME; details: human
CYP2D6 [10] = molecular target: T1, CYP2D6 (Homo sapiens, UniProt P10635)
T1 sequence (P10635 whole entry): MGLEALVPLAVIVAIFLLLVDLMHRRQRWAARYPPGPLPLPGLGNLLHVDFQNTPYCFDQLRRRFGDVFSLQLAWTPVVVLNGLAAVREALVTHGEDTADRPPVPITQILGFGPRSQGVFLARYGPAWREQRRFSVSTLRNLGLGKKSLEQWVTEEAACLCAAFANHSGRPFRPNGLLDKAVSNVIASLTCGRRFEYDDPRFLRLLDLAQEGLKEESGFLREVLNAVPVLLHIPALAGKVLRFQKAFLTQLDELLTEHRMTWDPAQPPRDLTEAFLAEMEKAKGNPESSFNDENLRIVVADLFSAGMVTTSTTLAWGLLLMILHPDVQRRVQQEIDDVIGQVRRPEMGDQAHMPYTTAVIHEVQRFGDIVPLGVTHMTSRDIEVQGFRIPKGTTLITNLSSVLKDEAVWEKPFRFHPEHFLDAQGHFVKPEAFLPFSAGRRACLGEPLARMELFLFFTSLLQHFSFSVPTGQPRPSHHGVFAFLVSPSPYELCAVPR

CYP2D6 [11] = molecular target: T1, CYP2D6; assay: biochemical

For `C=C(C)[C@@H]1CCC(C)=C[C@H]1c1c(O)cc(CCCCC)cc1O` [CBD, cannabidiol], the “level in human blood plasma” value [1] is listed as ~ 0.14 μM.
In the case of `CCCCCc1cc(O)c(C/C=C(\C)CCC(O)C(C)(C)O)c(O)c1` (stereo not shown) [carmagerol, 6′,7′-dihydroxy CBG], the “% NO level” value [2] is reported as 60.0±6.03%, the “effect on IL-6 level (pro-inflammatory activity)” value (“effect on IL-6 level” for short) [3] is reported as “lowering in IL-6 expression; also recorded: highest reduction in the pro-inflammatory activity” and the “IL-6 expression (ELISA)” value [3] is reported as 307.8±159.1. For the same compound, the “effect on IL-10 levels” value [4] was “concentration dependent increase in IL-10 levels” and the “levels of IL-10 (ELISA)” value [4] was 159.5±16.7.
With `C[C@]12CC[C@H]3[C@@H](CCC4=CC(=O)CC[C@@]43C)[C@@H]1CC[C@@H]2O` [TST, testosterone, reference compound] the “TST binds more strongly as compared to CBG” value (CYP3A4; direct binding, TST versus CBG) was roughly 5 times.
For `CCCCCc1cc(O)c2c(c1)OC(C)(CCC=C(C)C)C(O)C2` (stereo not shown) [cyclo-CBG], the “concentration of metabolite formed, detected in plasma” value [5] was 1500 nM, the “amount of cyclo-CBG relative to 6′,7′-epoxy-CBG in plasma” value ([5]; plasma of CBG treated mice) was ~ 100 times and the “amount of cyclo-CBG produced relative to 6′,7′-epoxy-CBG” value [6] was ~ 100 fold.
In the case of `CCCCCc1cc(O)c(C/C=C(\C)CCC2OC2(C)C)c(O)c1` (stereo not shown) [6′,7′-epoxy-CBG], the “concentration of metabolite formed, detected in plasma” value [5] is reported as 7.5 nM, the “effect on IL-6 level” value [3] is reported as “lowering in IL-6 expression” and the “effect on IL-10 levels” value [4] is reported as “concentration dependent increase in IL-10 levels”.
In the case of `CCCCCc1cc(O)c2c(c1)OC(C)(C)[C@@H]1CCC(C)=C[C@@H]21` [THC, Δ^9-tetrahydrocannabinol], the “level in human blood plasma” value [1] is listed as ~ 0.06 μM.
For `CC1=C(/C=C/C(C)=C/C=C/C(C)=C/C(=O)O)C(C)(C)CCC1` [RTA, all trans-retinoic acid], the “increase of Ks on addition of RTA to CBG-bound CYP” value (CYP2C8 [7]) was ~ 1.3 times and the “increase of ΔAmax on addition of RTA to CBG-bound CYP” value (CYP2C8 [7]) was ~ 1.2 times.
With `CCCCCc1cc(O)c(C/C=C(\C)CCC=C(C)C)c(O)c1` [CBG, Cannabigerol] the “Ks of CBG higher than for CYP2J2” value (CYP2C8 [8]) was roughly 3 times, the “% NO level” value [2] was 64.1±5.9% and the concentration at 0.5 h ([5]; female, mouse, in vivo) was 500 to 700 nM. The concentration at 2 h ([5]; female, mouse, in vivo) was roughly 50 nM, the “Km for formation of cyclo-CBG, CYP2J2 relative to 2D6 and 2C8” value [9] was 1.5–2 times and the “effect on IL-6 level” value [3] was “concentration dependent reduction in IL-6 level”. For the same compound, the “IL-6 expression (ELISA)” value [3] was 414.2±75.2, the Ki (CYP3A4) was 10 to 20 µM and the “Ks for CBG binding lower than for TDZ binding” value (CYP2D6 [10]) was roughly 3.5 times. For the same compound, the “Ks of CBG higher than for CYP2J2” value (CYP2D6 [10]) was roughly 3 times, the Ki (CYP2D6 [11]) was 10 to 20 µM and the “effect on IL-10 levels” value [4] was “concentration dependent increase in IL-10 levels”. For the same compound, the “expression of the anti-inflammatory cytokines” value [4] was “maximum expression of the anti-inflammatory cytokines” and the “levels of IL-10 (ELISA)” value [4] was 236.03±12.35.
In the case of `CCCCCc1cc(O)c(C/C=C(\C)CC/C=C(\C)CCC=C(C)C)c(O)c1` [sCBG, sesqicannabigerol], the “effect on IL-6 level” value [3] is reported as “concentration dependent reduction in IL-6 level” and the “bioactivity compared to CBG metabolites having polar functional groups” value ([3]; inflammatory cytokines in BV2 model, in words) is reported as “does not significant bioactivity”.
With `CCCCCc1cc(O)c(CC(O)C(C)(O)CCC=C(C)C)c(O)c1` (stereo not shown) [2′,3′-dihydroxy-CBG, 2′,3′-dihydroxy CBG] the “effect on IL-6 level” value [3] was “concentration dependent reduction in IL-6 level” and the “expression of the anti-inflammatory cytokines” value [4] was “maximum expression of the anti-inflammatory cytokines”.
